Test results from patent US20160008367A1, “Combination Comprising a Cyclin Dependent Kinase 4 or Cyclin Dependent Kinase (CDK4/6) Inhibitor for Treating Cancer” (Novartis AG, priority 2010, published 2016).

Columns and labels:
[1] = tested on: Jeko-1 mantle cell lymphoma cells; experiment: Cell Titer-Glo cell viability assay, single agents and combinations; type: cell-based; settings: 72 hrs
Experimental: The Cell Titer-Glo Luminscent Cell Viability Assay (Promega#G7572) generates a luminescent signal that is proportional to the number of metabolically active cells present in a reaction, based on the quantitation of ATP. Cell Titer-Glo Reagent was prepared by thawing a vial of Cell Titer-Glo Buffer in a 37° C. water bath. The entire bottle of buffer was then added to the bottle of lyophilized Cell Titer-Glo Substrate provided in the kit. Lyophilized substrate was allowed to dissolve; the solution was then mixed by inversion and was ready for use. Jeko-1 cells were diluted to a density of 200,000 cells/mL and cultured in T250 flask. Before treatment (time 0), 3×100 micro liter aliquots were removed and placed into a black 96 well plate with clear bottom (Costar#3904). 50 uL of CTG reagent was added to each well. The plate was placed on an Orbital Shaker, protected from light and incubated using setting 4 for 30 minutes at RT. The plate was then read using the Envision Luminometer, and results exported. The cells remaining in the T250 flasks were either left untreated or treated with single agents or in combinations. […] Results were exported and analyzed using Microsoft Excel. The percentage of viable cells as compared to control growth was calculated using following equation: […]
A is the CTG read under treatment condition
B is the CTG read for Time 0 cells
C is CTG read for 72 hr untreated cells […]

Jeko-1 xenograft = experiment: Jeko-1 mantle cell lymphoma xenograft model; type: in vivo; settings: 35 day treatment period, single agents
Source text: A Jeko-1 xenograft model was used to measure anti-tumor activity in a 35 day treatment period of Compound A1, Compound B1, and the combination of Compounds A1 and B1. Significant anti-tumor activity was observed.

[2] = tested on: PANC-1 pancreatic carcinomas; experiment: PANC-1 pancreatic carcinoma xenograft model; type: in vivo, nude mice; settings: PANC-1 xenograft, po x 21 days
Experimental: The PANC-1 pancreatic carcinomas used for implantation were maintained by serial engraftment in nude mice. […] Tumor size, in mm3, was calculated from: Tumor Volume=(w2×l)/2 where w=width and l=length, in mm, of the tumor. […] Group 1 mice received the Compound A1 and Compound B1 vehicles, and served as controls for all analyses. […] Each animal was euthanized when tumor volume reached 1200 mm3, or on the last day of the study ([…]). For each animal whose tumor reached the endpoint volume, the time to endpoint (TTE) was calculated by the following equation: TTE=(log10(endpoint volume)-b)/m Where TTE is expressed in days, endpoint volume is in mm3, b is the intercept, and m is the slope of the line obtained by linear regression of a log-transformed tumor growth data set. […] The calculated TTE is usually less than the day on which an animal is euthanized for tumor size. […] Treatment efficacy was determined from tumor growth delay (TGD), which is defined as the increase in the median TTE for a treatment group compared with the control group: TGD=T-C, expressed in days, or as a percentage of the median TTE of the control group: % TGD=[(T-C)/C]×100, where: T=median TTE for a treatment group, C=median TTE for the designated control group.

SMILES | % cell growth compared to the vehicle control ([1]; mTOR inhibitor alone at 1, 2.5 and 5 nM (all three concentrations)) | anti-tumor activity (Jeko-1 xenograft) | anti-tumor activity ([2]; Compound B1 10 mg/kg qd) | % cell growth compared to the vehicle control ([1]; 100 nM CDK4/6 inhibitor alone) [%] | anti-tumor activity ([2]; Compound A1 250 mg/kg qd)
COC1CC2CC[C@@H](C)C(O)(O2)C(=O)C(=O)N2CCCCC2C(=O)O[C@H](C(C)C[C@@H]2CCC(OCCO)[C@H](OC)C2)CC(=O)C(C)/C=C(\C)C(O)C(OC)C(=O)[C@H](C)CC(C)/C=C/C=C/C=C/1C (stereo in doubt) [Compound B1, (1R,9S,12S,15R,16E,18R,19R,21R,23S,24E,26E,28E,30S,32S,35R)-1,18-dihydroxy-12-{(1R)-2-[(1S,3R,4R)-4-(2-hydroxyethoxy)-3-methoxycyclohexyl]-1-methylethyl}-19,30-dimethoxy-15,17,21,23,29,35-hexamethyl-11,36-dioxa-4-aza-tricyclo[30.3.1.04,9]hexatriaconta-16,24,26,28-tetraene-2,3,10,14,20-pentaone] | approximately 30% | had anti-tumor activity | neither Compound A1 nor Compound B1 had significant anti-tumor activity | – | –
CN(C)C(=O)c1cc2cnc(Nc3ccc(N4CCNCC4)cn3)nc2n1C1CCCC1 [Compound A1, 7-Cyclopentyl-2-(5-piperazin-1-yl-pyridin-2-ylamino)-7H-pyrrolo[2,3-d]pyrimidine-6-carboxylic acid dimethylamide] | – | had anti-tumor activity | – | 70 | neither Compound A1 nor Compound B1 had significant anti-tumor activity
